Data reported in article PMC12717099, “Peptidoglycan recruitment by a penicillin binding protein” (Nature Communications, 2025).

Legend:
Assay type in all cases: binding, Enterococcus faecium
[1] = test system: PBP5:PenG complex (1:8); experiment: NMR CSP titration of stem peptides into PenG-saturated PBP5; details: PBP5:PenG 1:8, then SP titration
Protocol: Data was processed using Topspin 4.1.4 (Bruker) and analyzed using NMRFAM-SPARKY 1.3 and Poky (build number 20240829)[20],[21]. The sequence-specific backbone assignment of PBP5 is publicly available at BMRBID 51690.
SPs (SP1 to SP7) were titrated into 0.5 mM (^2H,^15N)-labeled and 0.1 mM (^2H,^15N)/^13C ILV labeled PBP5 at molar ratios of 0:1, 5:1, 10:1, 20:1, 40:1, 60:1, and 80:1 (stem peptide/SP:PBP5; molar ratios). 2D [^1H,^15N] TROSY or 2D [^1H,^13C] HMQC spectra were recorded for each titration point. SPs were solubilized in NMR buffer. Chemical shift perturbations (Δδ) between PBP5 and SP bound PBP5 spectra were calculated using Eq. 1,1 Δδppm=ΔδH^2+ΔδX/Y^2 where, X is ^15N or ^13C and Y is the constant i.e., 10 for ^15N and 4 for ^13C.
Residues with significant CSPs were identified by calculating the standard deviation of all CSPs (σ), then excluding any CSPs larger than average+2σ, recalculating σ as a new corrected σ0, and then repetitively removing CSPs above 2σ0 until no additional CSPs can be removed. CSPs above ≥2σ2 was the statistical threshold for ^1H/^15N backbone CSP analysis and ≥2xσ1 for ^1H/^13C methyl ILV data for the interaction of SP1 with PBP5. The same threshold values were used for all other peptides to allow for direct comparison with the SP1/PBP5 interaction. […]

[2] = test system: PBP5; experiment: 1D 1H STD NMR of stem peptides with PBP5; details: for STD % to SP1: normalised to highest SP1:PBP5 value; for STD amplification factor: protein:peptide 1:100, 2 s saturation, 308 K
Source text: (§1) Total saturation time for STD measurements was 2 s.
(§2) Overlapped peaks were completely excluded from the analysis.

[3] = test system: PBP5:PenG complex; experiment: 1D 1H STD NMR of stem peptides with PBP5:PenG; details: for STD amplification factor: PenG-saturated PBP5, 2 s saturation
Source text: as §1, §2

D-Lac-L-Ala-D-iGln-L-Lys(D-iAsn) [SP2]
CSPs in presence vs absence of penicillin, in words [1]: nearly identical | STD amplification factor as fraction of highest SP1:PBP5 value ([2]; 1H DLacβ): 0.3338 | STD % to SP1 ([2]; 1H DLacβ): 33.3802% | STD amplification factor ([2]; 1H DLacβ): 8.982 | STD amplification factor as fraction of highest SP1:PBP5 value ([2]; 1H DQ2β (first listed)): 0.6658 | STD % to SP1 ([2]; 1H DQ2β (first listed)): 66.5792% | STD amplification factor ([2]; 1H DQ2β (first listed)): 17.9154 | STD amplification factor as fraction of highest SP1:PBP5 value ([2]; 1H DQ2β (second listed)): 0.8494 | STD % to SP1 ([2]; 1H DQ2β (second listed)): 84.9407% | STD amplification factor ([2]; 1H DQ2β (second listed)): 22.8562 | STD amplification factor as fraction of highest SP1:PBP5 value ([2]; 1H DQ2γ): 0.2468 | STD % to SP1 ([2]; 1H DQ2γ): 24.6819% | STD amplification factor ([2]; 1H DQ2γ): 6.6415 | STD amplification factor as fraction of highest SP1:PBP5 value ([2]; 1H K3α): 0.4302 | STD % to SP1 ([2]; 1H K3α): 43.0201% | STD amplification factor ([2]; 1H K3α): 11.576 | STD amplification factor as fraction of highest SP1:PBP5 value ([2]; 1H K3β): 0.9507 | STD % to SP1 ([2]; 1H K3β): 95.0654% | STD amplification factor ([2]; 1H K3β): 25.5806 | STD amplification factor as fraction of highest SP1:PBP5 value ([2]; 1H K3γ): 0.5906 | STD % to SP1 ([2]; 1H K3γ): 59.0623% | STD amplification factor ([2]; 1H K3γ): 15.8927 | STD amplification factor as fraction of highest SP1:PBP5 value ([2]; 1H K3δ): 0.6971 | STD % to SP1 ([2]; 1H K3δ): 69.7058% | STD amplification factor ([2]; 1H K3δ): 18.7567 | STD amplification factor as fraction of highest SP1:PBP5 value ([2]; 1H K3ε): 0.1751 | STD % to SP1 ([2]; 1H K3ε): 17.5055% | STD amplification factor ([2]; 1H K3ε): 4.71 | STD amplification factor as fraction of highest SP1:PBP5 value ([2]; 1H LA1α): 0.3317 | STD % to SP1 ([2]; 1H LA1α): 33.1655% | STD amplification factor ([2]; 1H LA1α): 8.924 | STD amplification factor as fraction of highest SP1:PBP5 value ([2]; 1H LA1β): 0.3463 | STD % to SP1 ([2]; 1H LA1β): 34.6271% | STD amplification factor ([2]; 1H LA1β): 9.318 | STD amplification factor as fraction of highest SP1:PBP5 value ([2]; 1H iNα,DQ2α): 0.2066 | STD % to SP1 ([2]; 1H iNα,DQ2α): 20.663% | STD amplification factor ([2]; 1H iNα,DQ2α): 5.56 | STD amplification factor as fraction of highest SP1:PBP5 value ([2]; 1H iNβ): 0.2856 | STD % to SP1 ([2]; 1H iNβ): 28.5568% | STD amplification factor ([2]; 1H iNβ): 7.684 | STD amplification factor, ref to SP1 (fraction) ([3]; 1H DLacβ): 0.3213 | STD, ref to SP1 (percent) ([3]; 1H DLacβ): 32.1311 | STD amplification factor ([3]; 1H DLacβ): 8.646 | STD amplification factor, ref to SP1 (fraction) ([3]; 1H DQ2β (first listed)): 0.7026 | STD, ref to SP1 (percent) ([3]; 1H DQ2β (first listed)): 70.2576 | STD amplification factor ([3]; 1H DQ2β (first listed)): 18.9052 | STD amplification factor, ref to SP1 (fraction) ([3]; 1H DQ2β (second listed)): 0.9395 | STD, ref to SP1 (percent) ([3]; 1H DQ2β (second listed)): 93.9523 | STD amplification factor ([3]; 1H DQ2β (second listed)): 25.2811 | STD amplification factor, ref to SP1 (fraction) ([3]; 1H DQ2γ): 0.3025 | STD, ref to SP1 (percent) ([3]; 1H DQ2γ): 30.2481 | STD amplification factor ([3]; 1H DQ2γ): 8.139 | STD amplification factor, ref to SP1 (fraction) ([3]; 1H K3α): 0.5268 | STD, ref to SP1 (percent) ([3]; 1H K3α): 52.6829 | STD amplification factor ([3]; 1H K3α): 14.1761 | STD amplification factor, ref to SP1 (fraction) ([3]; 1H K3β): 1.026 | STD, ref to SP1 (percent) ([3]; 1H K3β): 102.583 | STD amplification factor ([3]; 1H K3β): 27.6034 | STD amplification factor, ref to SP1 (fraction) ([3]; 1H K3γ): 0.589 | STD, ref to SP1 (percent) ([3]; 1H K3γ): 58.9034 | STD amplification factor ([3]; 1H K3γ): 15.8499 | STD amplification factor, ref to SP1 (fraction) ([3]; 1H K3δ): 0.6424 | STD, ref to SP1 (percent) ([3]; 1H K3δ): 64.2392 | STD amplification factor ([3]; 1H K3δ): 17.2857 | STD amplification factor, ref to SP1 (fraction) ([3]; 1H K3ε): 0.1756 | STD, ref to SP1 (percent) ([3]; 1H K3ε): 17.5552 | STD amplification factor ([3]; 1H K3ε): 4.724 | STD amplification factor, ref to SP1 (fraction) ([3]; 1H LA1α): 0.4522 | STD, ref to SP1 (percent) ([3]; 1H LA1α): 45.2214 | STD amplification factor ([3]; 1H LA1α): 12.1683 | STD amplification factor, ref to SP1 (fraction) ([3]; 1H LA1β): 0.3642 | STD, ref to SP1 (percent) ([3]; 1H LA1β): 36.4217 | STD amplification factor ([3]; 1H LA1β): 9.8 | STD amplification factor, ref to SP1 (fraction) ([3]; 1H iNα,DQ2α): 0.2492 | STD, ref to SP1 (percent) ([3]; 1H iNα,DQ2α): 24.9206 | STD amplification factor ([3]; 1H iNα,DQ2α): 6.706 | STD amplification factor, ref to SP1 (fraction) ([3]; 1H iNβ): 0.3249 | STD, ref to SP1 (percent) ([3]; 1H iNβ): 32.4924 | STD amplification factor ([3]; 1H iNβ): 8.743
